Data reported in patent US8815837B2, “Respiratory disease treatment” (Pulmagen Therapeutics (Inflammation) Limited, priority 2008, dated 2014).

What was measured:
[1] = test system: Tobacco Smoke Induced Pulmonary Inflammation; experiment: Pre-clinical mouse model of COPD inflammation: tobacco smoke induced pulmonary inflammation, BAL cell counts; assay type: in vivo; conditions: mice, intranasal, BAL 24 h after final TS exposure
Description: Pre-Clinical Mouse Model of COPD Inflammation—Tobacco Smoke Induced Pulmonary Inflammation
Protocols for the exposure of mice to TS, obtaining bronchoalveolar lavage (BAL), preparation of cytospin slides for differential cell counts are as outlined below.
Exposure of Mice to TS Daily for 4 or 11 Consecutive Days
In this exposure protocol, mice were exposed in groups of 5 in individual clear polycarbonate chambers (27 cm×16 cm×12 cm). The TS from the cigarettes was allowed to enter the exposure chambers at a flow rate of 100 ml/min. In order to minimise any potential problems caused by repeated exposure to a high level of TS (6 cigarettes), the exposure of the mice to TS was increased gradually over the exposure period to a maximum of 6 cigarettes. The exposure schedule used for 4 days was as follows:
The exposure schedule used for 11 days exposure was as follows:
A further group of mice were exposed to air on a daily basis for equivalent lengths of time as controls (no TS exposure).
Bronchoalveolar Lavage (BAL) Analysis
Bronchoalveolar lavage was performed as follows: the trachea was cannulated using a Portex nylon intravenous cannula (pink luer fitting) shortened to approximately 8 mm. Phosphate buffered saline (PBS) was used as the lavage fluid. A volume of 0.4 ml was gently instilled and withdrawn 3 times using a 1 ml syringe and then placed in an Eppendorf tube and kept on ice prior to subsequent determinations.
Lavage fluid was separated from cells by centrifugation and the supernatant decanted and frozen for subsequent analysis. The cell pellet was re-suspended in a known volume of PBS and total cell numbers calculated by counting a stained (Turks stain) aliquot under a microscope using a haemocytometer.
Differential Cell Counts were Performed as Follows:
The residual cell pellet was diluted to approximately 10^5 cells per ml. A volume of 500 μl was placed in the funnel of a cytospin slide and centrifuged for 8 min at 800 rpm. The slide was air dried and stained using ‘Kwik-Diff’ solutions (Shandon) as per the proprietary instructions. When dried and cover-slipped, differential cells were counted using light microscopy. Up to 400 cells were counted by unbiased operator using light microscopy. Cells were differentiated using standard morphometric techniques.
Rodents such as mice and rats are obligate nasal breathers thus oral delivery of test materials (such as therapeutic agents) for inhalation will not produce good lung exposure. As a consequence, delivery of therapeutic agents to the lungs in rodents is generally achieved by intra-nasal, intra-tracheal or inhalation by whole body aerosol exposure in a chamber.
The chamber method utilises large amounts of test material and is generally reserved for inhalation toxicology studies rather than pharmacological efficacy studies. Intra-tracheal administration is a very efficient delivery method as almost all of the test material is delivered to the lungs, but this is quite an invasive technique. For studies in the mouse particularly, it is also quite technically demanding as the diameter of the trachea is quite small. The intranasal route is less invasive than the intra-tracheal route and so is particularly suitable for repeat dosing studies such as the 4-11 day mouse model described below.
The control group of mice received vehicle 1 hr prior to being exposed to air daily for a maximum of 50 minutes per day. BAL was performed 24 h following the final TS exposure. All compounds were dosed as the HCl salt with doses corrected as base.
[…]
Data Management and Statistical Analysis
All results are presented as individual data points for each animal and the mean value was calculated for each group.

[2] = cited from earlier work
[3] = test system: rodent diabetes model; conditions: oral administration; cited from earlier work
[4] = molecular target: T1, PPARγ receptor (Homo sapiens, UniProt P37231); conditions: page 13 of WO2007100027; cited from earlier work
T1 sequence (P37231 1-505): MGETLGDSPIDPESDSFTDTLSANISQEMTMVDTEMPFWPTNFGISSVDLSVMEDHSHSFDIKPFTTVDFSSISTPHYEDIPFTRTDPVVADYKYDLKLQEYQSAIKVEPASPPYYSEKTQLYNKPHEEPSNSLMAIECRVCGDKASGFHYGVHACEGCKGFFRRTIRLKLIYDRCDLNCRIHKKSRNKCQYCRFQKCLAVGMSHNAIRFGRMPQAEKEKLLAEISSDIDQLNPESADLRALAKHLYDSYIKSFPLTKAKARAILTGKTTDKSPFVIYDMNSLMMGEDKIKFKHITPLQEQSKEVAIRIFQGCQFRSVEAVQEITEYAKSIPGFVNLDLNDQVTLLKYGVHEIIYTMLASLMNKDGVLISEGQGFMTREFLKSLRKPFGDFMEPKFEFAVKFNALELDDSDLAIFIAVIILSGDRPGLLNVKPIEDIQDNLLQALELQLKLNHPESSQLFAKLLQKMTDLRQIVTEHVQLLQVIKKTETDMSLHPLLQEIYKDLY

[5] = 3 μg/kg, pioglitazone experiment, FIG. 1
[6] = 3 μg/kg, pioglitazone experiment, FIG. 2
[7] = 10 μg/kg, rosiglitazone experiment, FIG. 3
[8] = 10 μg/kg, rosiglitazone experiment, FIG. 4
[9] = 1 μg/kg, pioglitazone experiment, FIG. 1
[10] = 1 μg/kg, pioglitazone experiment, FIG. 2
[11] = 3 μg/kg, rosiglitazone experiment, FIG. 3
[12] = 3 μg/kg, rosiglitazone experiment, FIG. 4

With `CCc1ccc(CCOc2ccc(CC3SC(=O)NC3=O)cc2)nc1` (racemic) [Racemic pioglitazone, 5-{4-[2-(5-ethylpyridin-2-yl)ethoxy]benzyl}-1,3-thiazolidine-2,4-dione, reference compound] as the molecule, how does the “BAL cell influx (total BAL cells) induced by TS” value (shortened to “BAL cell influx”) [1, 5] read?
The value was “significantly inhibited”.

And the “BAL neutrophil numbers induced by TS exposure” value (from here on “BAL neutrophil numbers induced”) [1, 6]?
The value was “significantly inhibited”.

What about the “interconversion of the two enantiomers in vivo” value [2] of the same molecule?
The value was “interconvert in vivo”.

What about the “activity of racemate versus individual enantiomers in a rodent diabetes model” value [3] of the same molecule?
Its value is “no difference in activity”.

Which “BAL cell influx” value [1, 7] does the source give for `CN(CCOc1ccc(CC2SC(=O)NC2=O)cc1)c1ccccn1` (racemic) [Racemic rosiglitazone, 5-(4-{2-[methyl (pyridin-2-yl)amino]ethoxy]benzyl}-1,3-thiazolidine-2,4-dione, reference compound] here?
Its value is “significantly inhibited”.

What about the “BAL neutrophil numbers induced” value [1, 8] of the same molecule?
The value was “significantly inhibited”.

With `CCc1ccc(CCOc2ccc(C[C@H]3SC(=O)NC3=O)cc2)nc1.Cl` [Example 4, (5R)-5-{4-[2-(5-ethylpyridin-2-yl)ethoxy]benzyl}-1,3-thiazolidine-2,4-dione hydrochloride] as the molecule, how does the “BAL cell influx” value [1, 9] read?
Its value is “significantly inhibited”.

And the “BAL neutrophil numbers induced” value [1, 10]?
The value was “significantly inhibited”.

And the “BAL cell influx” value [1, 5]?
Its value is “significantly inhibited”.

What about the “BAL neutrophil numbers induced” value [1, 6] of the same molecule?
The value was “significantly inhibited”.

With `CCc1ccc(CCOc2ccc(C[C@@H]3SC(=O)NC3=O)cc2)nc1.Cl` [Example 6, (5S)-5-{4-[2-(5-ethylpyridin-2-yl)ethoxy]benzyl}-1,3-thiazolidine-2,4-dione hydrochloride] as the molecule, how does the “BAL cell influx” value [1, 9] read?
Its value is “failed to inhibit”.

What about the “BAL neutrophil numbers induced” value [1, 10] of the same molecule?
The value was “ineffective”.

What about the “BAL cell influx” value [1, 5] of the same molecule?
Its value is “failed to inhibit”.

What about the “BAL neutrophil numbers induced” value [1, 6] of the same molecule?
The value was “ineffective”.

With `CN(CCOc1ccc(C[C@H]2SC(=O)NC2=O)cc1)c1ccccn1.Cl` [Example 8, (5R)-5-(4-{2-[methyl(pyridin-2-yl)amino]ethoxy}benzyl)-1,3-thiazolidine-2,4-dione hydrochloride] as the molecule, how does the “BAL cell influx” value [1, 11] read?
Its value is “significantly inhibited”.

What about the “BAL neutrophil numbers induced” value [1, 12] of the same molecule?
The value was “significantly inhibited”.

What about the “BAL cell influx” value [1, 7] of the same molecule?
Its value is “significantly inhibited”.

What about the “BAL neutrophil numbers induced” value [1, 8] of the same molecule?
The value was “significantly inhibited”.

Which “BAL cell influx” value [1, 11] does the source give for `CN(CCOc1ccc(C[C@@H]2SC(=O)NC2=O)cc1)c1ccccn1.Cl` [Example 9, (5S)-5-(4-{2-[methyl(pyridin-2-yl)amino]ethoxy}benzyl)-1,3-thiazolidine-2,4-dione hydrochloride monohydrate] here?
The value was “failed to inhibit”.

What about the “BAL neutrophil numbers induced” value [1, 12] of the same molecule?
Its value is “ineffective”.

What about the “BAL cell influx” value [1, 7] of the same molecule?
Its value is “failed to inhibit”.

And the “BAL neutrophil numbers induced” value [1, 8]?
The value was “ineffective”.

With `COc1ccc2nc(COc3ccc(CC4SC(=O)NC4=O)cc3)n(C)c2c1` (centres unmarked) [Rivoglitazone] as the molecule, how does the “receptor binding affinity, 5S versus 5R enantiomer” value [4] read?
The value was 5S enantiomer also has higher receptor binding affinity than the 5R enantiomer.
